Test results published in ChEMBL document CHEMBL3751825, “Synthesis and protective effect of new ligustrazine derivatives against CoCl2-induced neurotoxicity in differentiated PC12 cells. Part 2” (Medchemcomm, 2015).

Columns and labels:
[1] = Neuroprotective activity against cobalt chloride-induced neurotoxicity in rat differentiated PC12 cells; format: functional, cell-based; settings: pc-12
[2] = Neuroprotective activity against cobalt chloride-induced neurotoxicity in rat NGF-differentiated PC12 cells assessed as increase of neurite-bearing cell level at 60 uM after 12 hrs

Row | SMILES | EC50 [1] | Activity [2]
1 | COc1cccc(/C=C/C(=O)OCc2nc(C)c(C)nc2C)c1OC | < 24 µM | –
2 | COc1cc(/C=C/C(=O)OCc2nc(C)c(C)nc2C)cc(OC)c1OC | < 24 µM | –
3 | COc1cccc(/C=C/C(=O)OCc2nc(C)c(C)nc2C)c1 | < 24 µM | –
4 | Cc1nc(C)c(COC(=O)c2cc(OCc3nc(C)c(C)nc3C)c(OCc3nc(C)c(C)nc3C)c(OCc3nc(C)c(C)nc3C)c2)nc1C | > 100 µM | –
5 | COc1ccc(/C=C/C(=O)OCc2nc(C)c(C)nc2C)cc1OC | < 24 µM | –
6 | COc1ccc(C(C)=O)c(OCc2nc(C)c(C)nc2C)c1 | < 15 µM | –
7 | COc1ccc(/C=C/C(=O)OCc2nc(C)c(C)nc2C)c(OC)c1OC | 0.719 µM | 50.8%
8 | COc1ccccc1/C=C/C(=O)OCc1nc(C)c(C)nc1C | < 24 µM | –
9 | COc1ccc(/C=C/C(=O)OCc2nc(C)c(C)nc2C)cc1 | < 24 µM | –
10 | COc1ccc(OC)c(/C=C/C(=O)OCc2nc(C)c(C)nc2C)c1 | < 24 µM | –
11 | C=CCc1ccc(OCc2nc(C)c(C)nc2C)c(OC)c1 | 4.62 µM | –
